Experiments:
[1] = Phase I study of sequential sapacitabine and seliciclib, Schedule 2: dose escalation, MTD, DLT and adverse events; format: in vivo; conditions: Schedule 2: sapacitabine b.i.d. days 1-7, seliciclib b.i.d. days 8-10, 11 days of rest; 27 patients
Method: Phase I Study of Sequential Sapacitabine and Seliciclib in Patients with Advanced Solid Tumors
(§1) At least 3 patients were evaluated per dose level.

H2AX staining = test: Skin biopsies to assess DNA damage (H2AX staining) in the Phase I study; format: in vivo, patients
Method: as §1

[2] = phase I, single agent; cited from earlier work
colon cancer = conditions: model of colon cancer, compared with gemcitabine or 5-FU; cited from earlier work
A549 cells = conditions: twenty-four hour treatment; cited from earlier work

SMILES: CCCCCCCCCCCCCCCC(=O)Nc1ccn(C2O[C@H](CO)[C@@H](O)[C@@H]2C#N)c(=O)n1 (stereo partly drawn) [sapacitabine, 1-(2-C-cyano-2-dioxy-β-D-arabino-pentofuranosyl)-N^4-palmitoyl cytosine]
- MTD and recommended phase II dose (RP2D) [1]: 50 mg b.i.d.
- increase in H2AX staining post-sapacitabine (H2AX staining; day 8 vs pre-treatment, n=16, P=0.007): 2.3 fold
- dose limiting toxicity [2]: myelosuppression
- tolerability in humans [2]: well tolerated
- increasing survival and preventing spread of colon cancer metastases to the liver (colon cancer): superior to either gemcitabine or 5-FU

SMILES: CC[C@H](CO)Nc1nc(NCc2ccccc2)c2ncn(C(C)C)c2n1 [seliciclib, 6-benzylamino-2-[(R)-1-ethyl-2-hydroxyethylamino]-9-isopropylpurine]
- MTD and recommended phase II dose (RP2D) [1]: 1200 mg b.i.d.
- further increase in H2AX staining post-seliciclib (H2AX staining; day 11 vs day 8, n=12, P=0.069): 0.58 fold
- expression of key genes involved in HR (BRCA1 and RAD50) and NHEJ (Ku80, DNA-PK and NHEJ1) (A549 cells): significant downregulation

From patent publication US9872874B2 (Cyclacel Limited, priority 2012, dated 2018)
